Reference: ChEMBL document CHEMBL3044736, “Synthesis, characterization, solvatochromic properties, and antimicrobial evaluation of 5-acetyl-2-thioxo-dihydro-pyrimidine-4,6-dione-based chalcones” (2013)
≈ marks a conversion by molar mass, not a printed value.

How the values were obtained:
Format in all cases: functional
Penicillium [1] = assay: Antimicrobial activity against Penicillium wild strain assessed as diameter of growth inhibition zone at 250 ug/ml after 48-96 hr by agar cup diffusion method; conditions: read-out: DIZ
Penicillium [2] = assay: Antimicrobial activity against Penicillium wild strain assessed as diameter of growth inhibition zone at 100 ug/ml after 48-96 hr by agar cup diffusion method; conditions: read-out: DIZ
Trichophyton rubrum [3] = assay: Antimicrobial activity against Trichophyton rubrum MTCC 296 assessed as diameter of growth inhibition zone at 100 ug/ml after 48-96 hr by agar cup diffusion method; conditions: read-out: DIZ
Aspergillus clavatus [4] = assay: Antimicrobial activity against Aspergillus clavatus MTCC 1323 assessed as diameter of growth inhibition zone at 100 ug/ml after 48-96 hr by agar cup diffusion method; conditions: read-out: DIZ
Candida albicans [5] = assay: Antimicrobial activity against Candida albicans MTCC 227 assessed as diameter of growth inhibition zone at 100 ug/ml after 48-96 hr by agar cup diffusion method; conditions: read-out: DIZ
Penicillium [6] = assay: Antimicrobial activity against Penicillium wild strain assessed as diameter of growth inhibition zone at 50 ug/ml after 48-96 hr by agar cup diffusion method; conditions: read-out: DIZ
Trichophyton rubrum [7] = assay: Antimicrobial activity against Trichophyton rubrum MTCC 296 assessed as diameter of growth inhibition zone at 50 ug/ml after 48-96 hr by agar cup diffusion method; conditions: read-out: DIZ
Aspergillus clavatus [8] = assay: Antimicrobial activity against Aspergillus clavatus MTCC 1323 assessed as diameter of growth inhibition zone at 50 ug/ml after 48-96 hr by agar cup diffusion method; conditions: read-out: DIZ
Candida albicans [9] = assay: Antimicrobial activity against Candida albicans MTCC 227 assessed as diameter of growth inhibition zone at 50 ug/ml after 48-96 hr by agar cup diffusion method; conditions: read-out: DIZ
Penicillium [10] = assay: Antimicrobial activity against Penicillium wild strain assessed as diameter of growth inhibition zone at 25 ug/ml after 48-96 hr by agar cup diffusion method; conditions: read-out: DIZ
Trichophyton rubrum [11] = assay: Antimicrobial activity against Trichophyton rubrum MTCC 296 assessed as diameter of growth inhibition zone at 25 ug/ml after 48-96 hr by agar cup diffusion method; conditions: read-out: DIZ
Aspergillus clavatus [12] = assay: Antimicrobial activity against Aspergillus clavatus MTCC 1323 assessed as diameter of growth inhibition zone at 25 ug/ml after 48-96 hr by agar cup diffusion method; conditions: read-out: DIZ
Candida albicans [13] = assay: Antimicrobial activity against Candida albicans MTCC 227 assessed as diameter of growth inhibition zone at 25 ug/ml after 48-96 hr by agar cup diffusion method; conditions: read-out: DIZ
Penicillium [14] = assay: Antimicrobial activity against Penicillium wild strain by agar cup diffusion method
Aspergillus clavatus [15] = assay: Antimicrobial activity against Aspergillus clavatus MTCC 1323 by agar cup diffusion method
Pseudomonas aeruginosa [16] = assay: Antimicrobial activity against Pseudomonas aeruginosa MTCC 1688 assessed as diameter of growth inhibition zone at 25 ug/ml after 18-24 hr by agar cup diffusion method; conditions: read-out: DIZ
Escherichia coli [17] = assay: Antimicrobial activity against Escherichia coli MTCC 443 assessed as diameter of growth inhibition zone at 25 ug/ml after 18-24 hr by agar cup diffusion method; conditions: read-out: DIZ
Staphylococcus aureus [18] = assay: Antimicrobial activity against Staphylococcus aureus MTCC 96 assessed as diameter of growth inhibition zone at 25 ug/ml after 18-24 hr by agar cup diffusion method; conditions: read-out: DIZ
Streptococcus pyogenes [19] = assay: Antimicrobial activity against Streptococcus pyogenes MTCC 442 assessed as diameter of growth inhibition zone at 25 ug/ml after 18-24 hr by agar cup diffusion method; conditions: read-out: DIZ
Klebsiella pneumoniae [20] = assay: Antimicrobial activity against Klebsiella pneumoniae MTCC 109 by agar cup diffusion method
Escherichia coli [21] = assay: Antimicrobial activity against Escherichia coli MTCC 443 by agar cup diffusion method
Pseudomonas aeruginosa [22] = assay: Antimicrobial activity against Pseudomonas aeruginosa MTCC 1688 by agar cup diffusion method
Staphylococcus aureus [23] = assay: Antimicrobial activity against Staphylococcus aureus MTCC 96 by agar cup diffusion method
Streptococcus pyogenes [24] = assay: Antimicrobial activity against Streptococcus pyogenes MTCC 442 by agar cup diffusion method
Trichophyton rubrum [25] = assay: Antimicrobial activity against Trichophyton rubrum MTCC 296 by agar cup diffusion method
Candida albicans [26] = assay: Antimicrobial activity against Candida albicans MTCC 227 by agar cup diffusion method
Klebsiella pneumoniae [27] = assay: Antimicrobial activity against Klebsiella pneumoniae MTCC 109 assessed as diameter of growth inhibition zone at 250 ug/ml after 18-24 hr by agar cup diffusion method; conditions: read-out: DIZ
Pseudomonas aeruginosa [28] = assay: Antimicrobial activity against Pseudomonas aeruginosa MTCC 1688 assessed as diameter of growth inhibition zone at 250 ug/ml after 18-24 hr by agar cup diffusion method; conditions: read-out: DIZ
Escherichia coli [29] = assay: Antimicrobial activity against Escherichia coli MTCC 443 assessed as diameter of growth inhibition zone at 250 ug/ml after 18-24 hr by agar cup diffusion method; conditions: read-out: DIZ
Staphylococcus aureus [30] = assay: Antimicrobial activity against Staphylococcus aureus MTCC 96 assessed as diameter of growth inhibition zone at 250 ug/ml after 18-24 hr by agar cup diffusion method; conditions: read-out: DIZ
Streptococcus pyogenes [31] = assay: Antimicrobial activity against Streptococcus pyogenes MTCC 442 assessed as diameter of growth inhibition zone at 250 ug/ml after 18-24 hr by agar cup diffusion method; conditions: read-out: DIZ
Klebsiella pneumoniae [32] = assay: Antimicrobial activity against Klebsiella pneumoniae MTCC 109 assessed as diameter of growth inhibition zone at 100 ug/ml after 18-24 hr by agar cup diffusion method; conditions: read-out: DIZ
Pseudomonas aeruginosa [33] = assay: Antimicrobial activity against Pseudomonas aeruginosa MTCC 1688 assessed as diameter of growth inhibition zone at 100 ug/ml after 18-24 hr by agar cup diffusion method; conditions: read-out: DIZ
Escherichia coli [34] = assay: Antimicrobial activity against Escherichia coli MTCC 443 assessed as diameter of growth inhibition zone at 100 ug/ml after 18-24 hr by agar cup diffusion method; conditions: read-out: DIZ
Staphylococcus aureus [35] = assay: Antimicrobial activity against Staphylococcus aureus MTCC 96 assessed as diameter of growth inhibition zone at 100 ug/ml after 18-24 hr by agar cup diffusion method; conditions: read-out: DIZ
Streptococcus pyogenes [36] = assay: Antimicrobial activity against Streptococcus pyogenes MTCC 442 assessed as diameter of growth inhibition zone at 100 ug/ml after 18-24 hr by agar cup diffusion method; conditions: read-out: DIZ
Klebsiella pneumoniae [37] = assay: Antimicrobial activity against Klebsiella pneumoniae MTCC 109 assessed as diameter of growth inhibition zone at 50 ug/ml after 18-24 hr by agar cup diffusion method; conditions: read-out: DIZ
Pseudomonas aeruginosa [38] = assay: Antimicrobial activity against Pseudomonas aeruginosa MTCC 1688 assessed as diameter of growth inhibition zone at 50 ug/ml after 18-24 hr by agar cup diffusion method; conditions: read-out: DIZ
Escherichia coli [39] = assay: Antimicrobial activity against Escherichia coli MTCC 443 assessed as diameter of growth inhibition zone at 50 ug/ml after 18-24 hr by agar cup diffusion method; conditions: read-out: DIZ
Staphylococcus aureus [40] = assay: Antimicrobial activity against Staphylococcus aureus MTCC 96 assessed as diameter of growth inhibition zone at 50 ug/ml after 18-24 hr by agar cup diffusion method; conditions: read-out: DIZ
Streptococcus pyogenes [41] = assay: Antimicrobial activity against Streptococcus pyogenes MTCC 442 assessed as diameter of growth inhibition zone at 50 ug/ml after 18-24 hr by agar cup diffusion method; conditions: read-out: DIZ
Klebsiella pneumoniae [42] = assay: Antimicrobial activity against Klebsiella pneumoniae MTCC 109 assessed as diameter of growth inhibition zone at 25 ug/ml after 18-24 hr by agar cup diffusion method; conditions: read-out: DIZ
Trichophyton rubrum [43] = assay: Antimicrobial activity against Trichophyton rubrum MTCC 296 assessed as diameter of growth inhibition zone at 250 ug/ml after 48-96 hr by agar cup diffusion method; conditions: read-out: DIZ
Aspergillus clavatus [44] = assay: Antimicrobial activity against Aspergillus clavatus MTCC 1323 assessed as diameter of growth inhibition zone at 250 ug/ml after 48-96 hr by agar cup diffusion method; conditions: read-out: DIZ
Candida albicans [45] = assay: Antimicrobial activity against Candida albicans MTCC 227 assessed as diameter of growth inhibition zone at 250 ug/ml after 48-96 hr by agar cup diffusion method; conditions: read-out: DIZ

Structure (SMILES): COc1ccc(/C=C/C(=O)C2C(=O)NC(=S)NC2=O)cc1
- zone of inhibition at 250 µg/mL (Penicillium [1]): 25 mm
- zone of inhibition at 100 µg/mL (Penicillium [2]): 23 mm
- zone of inhibition at 100 µg/mL (Trichophyton rubrum [3]): 21 mm
- zone of inhibition at 100 µg/mL (Aspergillus clavatus [4]): 23 mm
- zone of inhibition at 100 µg/mL (Candida albicans [5]): 24 mm
- zone of inhibition at 50 µg/mL (Penicillium [6]): 21 mm
- zone of inhibition at 50 µg/mL (Trichophyton rubrum [7]): 20 mm
- zone of inhibition at 50 µg/mL (Aspergillus clavatus [8]): 21 mm
- zone of inhibition at 50 µg/mL (Candida albicans [9]): 21 mm
- zone of inhibition at 25 µg/mL (Penicillium [10]): 21 mm
- zone of inhibition at 25 µg/mL (Trichophyton rubrum [11]): 19 mm
- zone of inhibition at 25 µg/mL (Aspergillus clavatus [12]): 20 mm
- zone of inhibition at 25 µg/mL (Candida albicans [13]): 18 mm
- MFC (Penicillium [14]): 500 µg/mL (≈ 1640 µM)
- MIC (Penicillium [14]): 500 µg/mL (≈ 1640 µM)
- MFC (Aspergillus clavatus [15]): 1000 µg/mL (≈ 3290 µM)
- MIC (Aspergillus clavatus [15]): 500 µg/mL (≈ 1640 µM)
- zone of inhibition at 25 µg/mL (Pseudomonas aeruginosa [16]): 13 mm
- zone of inhibition at 25 µg/mL (Escherichia coli [17]): 15 mm
- zone of inhibition at 25 µg/mL (Staphylococcus aureus [18]): 13 mm
- zone of inhibition at 25 µg/mL (Streptococcus pyogenes [19]): 15 mm
- MBC (Klebsiella pneumoniae [20]): 250 µg/mL (≈ 821 µM)
- MIC (Klebsiella pneumoniae [20]): 200 µg/mL (≈ 657 µM)
- MBC (Escherichia coli [21]): 250 µg/mL (≈ 821 µM)
- MIC (Escherichia coli [21]): 200 µg/mL (≈ 657 µM)
- MBC (Pseudomonas aeruginosa [22]): 125 µg/mL (≈ 411 µM)
- MIC (Pseudomonas aeruginosa [22]): 100 µg/mL (≈ 329 µM)
- MBC (Staphylococcus aureus [23]): 250 µg/mL (≈ 821 µM)
- MIC (Staphylococcus aureus [23]): 200 µg/mL (≈ 657 µM)
- MBC (Streptococcus pyogenes [24]): 250 µg/mL (≈ 821 µM)
- MIC (Streptococcus pyogenes [24]): 200 µg/mL (≈ 657 µM)
- MFC (Trichophyton rubrum [25]): > 1000 µg/mL
- MIC (Trichophyton rubrum [25]): > 1000 µg/mL
- MFC (Candida albicans [26]): 1000 µg/mL (≈ 3290 µM)
- MIC (Candida albicans [26]): > 1000 µg/mL
- zone of inhibition at 250 µg/mL (Klebsiella pneumoniae [27]): 17 mm
- zone of inhibition at 250 µg/mL (Pseudomonas aeruginosa [28]): 21 mm
- zone of inhibition at 250 µg/mL (Escherichia coli [29]): 21 mm
- zone of inhibition at 250 µg/mL (Staphylococcus aureus [30]): 21 mm
- zone of inhibition at 250 µg/mL (Streptococcus pyogenes [31]): 21 mm
- zone of inhibition at 100 µg/mL (Klebsiella pneumoniae [32]): 14 mm
- zone of inhibition at 100 µg/mL (Pseudomonas aeruginosa [33]): 18 mm
- zone of inhibition at 100 µg/mL (Escherichia coli [34]): 20 mm
- zone of inhibition at 100 µg/mL (Staphylococcus aureus [35]): 18 mm
- zone of inhibition at 100 µg/mL (Streptococcus pyogenes [36]): 20 mm
- zone of inhibition at 50 µg/mL (Klebsiella pneumoniae [37]): 13 mm
- zone of inhibition at 50 µg/mL (Pseudomonas aeruginosa [38]): 17 mm
- zone of inhibition at 50 µg/mL (Escherichia coli [39]): 18 mm
- zone of inhibition at 50 µg/mL (Staphylococcus aureus [40]): 17 mm
- zone of inhibition at 50 µg/mL (Streptococcus pyogenes [41]): 18 mm
- zone of inhibition at 25 µg/mL (Klebsiella pneumoniae [42]): 11 mm
- zone of inhibition at 250 µg/mL (Trichophyton rubrum [43]): 22 mm
- zone of inhibition at 250 µg/mL (Aspergillus clavatus [44]): 24 mm
- zone of inhibition at 250 µg/mL (Candida albicans [45]): 24 mm
